Among the data in PMC6852662 (Organic & biomolecular chemistry, 2019) are conversion values, retold here.

The experiment addresses T1, PmST1 (Pasteurella multocida, UniProt Q15KI8).
T1 sequence (Q15KI8 26-412): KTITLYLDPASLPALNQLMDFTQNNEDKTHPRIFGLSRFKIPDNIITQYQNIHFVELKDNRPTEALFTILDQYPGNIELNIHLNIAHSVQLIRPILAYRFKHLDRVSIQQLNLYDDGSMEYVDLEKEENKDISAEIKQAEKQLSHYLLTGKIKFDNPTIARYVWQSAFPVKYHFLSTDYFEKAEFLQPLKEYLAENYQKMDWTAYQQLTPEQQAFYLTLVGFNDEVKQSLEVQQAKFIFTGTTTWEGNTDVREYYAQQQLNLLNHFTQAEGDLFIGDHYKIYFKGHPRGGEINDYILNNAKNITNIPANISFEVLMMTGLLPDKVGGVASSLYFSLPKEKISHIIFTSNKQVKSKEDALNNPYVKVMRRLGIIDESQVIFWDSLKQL
In words: sialylation, conversion. It is filed as biochemical. As to conditions: poor substrate; prolonged incubation.

For Gb5 [4a], the conversion is ~ 30%.
